Like-named read-outs stand apart in the source and are kept apart here.
Experiments:
5637 = assay: Proliferation of tumor cell lines (Bracht et al.); format: cell-based; conditions: for activity at 20 µM: 5637, tested at 20 μM, read-out: T/C (%) Mean
ERBB2 = target: T1, ERBB2 (Homo sapiens, UniProt P04626); assay: Radiometric protein kinase assay (33PanQinase Activity Assay); format: biochemical
T1 construct: made in house; host or cells: Sf9 insect cells, baculovirus
Text: (§1) AKTI1, ARK5, Aurora-A, Aurora-B, B-RAF-VE, CDK2/CycA, CDK4/CycD1, CK2-alpha1 (catalytic subunit of CK2), EGF-R, EPHB4, ERBB2, FAK, IGF1-R, SRC, VEGF-R2, VEGF-R3, FLT3, INS-R, MET, PDGFR-beta, PLK1, SAK, TIE2, COT.
(§2) All the protein kinases were expressed in Sf9 insect cells as human recombinant GST fusion proteins or His-tagged proteins by the baculovirus expression system. Kinases were purified by affinity chromatography either by GSH-agarose (Sigma) or Ni—NTH-agarose (Qiagen). The purity of the kinases was tested by SDS-PAGE/silver staining, and the identity of the kinases was verified by Western blot analysis with specific antibodies or mass spectroscopy.
(§3) A radiometric protein kinase assay (33PanQinase® Activity Assay) was used to measure the kinase activity for the 24 protein kinases. The kinase assays were carried out in 96-well FlashPlates™ from Perkin Elmer/NEN (Boston, Mass., USA) in a reaction volume of 50 μl. The reaction mixture was pipetted in 4 steps in the following sequence: • 20 μl of assay buffer • 5 μl of ATP solution (in H2O) • 5 μl of test compound (in 10% DMSO) • 10 μl of substrate/10 μl of enzyme solution (premixed)
(§4) The assays for all the enzymes contained 60 mM HEPES-NaOH, pH 7.5, 3 mM MgCl2, 3 mM MnCl2, 3 μM Na orthovanadate, 1.2 mM DTT, 50 μg/ml PEG20000, 1 μM [γ-^33P]-ATP (about 5×10^5 cpm per well).
(§5) The reaction mixture was incubated at 30° C. for 80 minutes. The reaction was stopped with 50 μl of 2% (v/v) H3PO4. The plates were aspirated and washed twice with 200 μl of 0.9% (w/v) NaCl. The incorporation of ^33Pi was determined using a microtiter plates scintillation counter (Microbeta Trilux, Wallac).

VEGF-R2 = target: T2, VEGF-R2 (Homo sapiens, UniProt P35968); assay: as above; format: biochemical
T2 construct: made in house; host or cells: Sf9 insect cells, baculovirus
T2 sequence (P35968 20-1356): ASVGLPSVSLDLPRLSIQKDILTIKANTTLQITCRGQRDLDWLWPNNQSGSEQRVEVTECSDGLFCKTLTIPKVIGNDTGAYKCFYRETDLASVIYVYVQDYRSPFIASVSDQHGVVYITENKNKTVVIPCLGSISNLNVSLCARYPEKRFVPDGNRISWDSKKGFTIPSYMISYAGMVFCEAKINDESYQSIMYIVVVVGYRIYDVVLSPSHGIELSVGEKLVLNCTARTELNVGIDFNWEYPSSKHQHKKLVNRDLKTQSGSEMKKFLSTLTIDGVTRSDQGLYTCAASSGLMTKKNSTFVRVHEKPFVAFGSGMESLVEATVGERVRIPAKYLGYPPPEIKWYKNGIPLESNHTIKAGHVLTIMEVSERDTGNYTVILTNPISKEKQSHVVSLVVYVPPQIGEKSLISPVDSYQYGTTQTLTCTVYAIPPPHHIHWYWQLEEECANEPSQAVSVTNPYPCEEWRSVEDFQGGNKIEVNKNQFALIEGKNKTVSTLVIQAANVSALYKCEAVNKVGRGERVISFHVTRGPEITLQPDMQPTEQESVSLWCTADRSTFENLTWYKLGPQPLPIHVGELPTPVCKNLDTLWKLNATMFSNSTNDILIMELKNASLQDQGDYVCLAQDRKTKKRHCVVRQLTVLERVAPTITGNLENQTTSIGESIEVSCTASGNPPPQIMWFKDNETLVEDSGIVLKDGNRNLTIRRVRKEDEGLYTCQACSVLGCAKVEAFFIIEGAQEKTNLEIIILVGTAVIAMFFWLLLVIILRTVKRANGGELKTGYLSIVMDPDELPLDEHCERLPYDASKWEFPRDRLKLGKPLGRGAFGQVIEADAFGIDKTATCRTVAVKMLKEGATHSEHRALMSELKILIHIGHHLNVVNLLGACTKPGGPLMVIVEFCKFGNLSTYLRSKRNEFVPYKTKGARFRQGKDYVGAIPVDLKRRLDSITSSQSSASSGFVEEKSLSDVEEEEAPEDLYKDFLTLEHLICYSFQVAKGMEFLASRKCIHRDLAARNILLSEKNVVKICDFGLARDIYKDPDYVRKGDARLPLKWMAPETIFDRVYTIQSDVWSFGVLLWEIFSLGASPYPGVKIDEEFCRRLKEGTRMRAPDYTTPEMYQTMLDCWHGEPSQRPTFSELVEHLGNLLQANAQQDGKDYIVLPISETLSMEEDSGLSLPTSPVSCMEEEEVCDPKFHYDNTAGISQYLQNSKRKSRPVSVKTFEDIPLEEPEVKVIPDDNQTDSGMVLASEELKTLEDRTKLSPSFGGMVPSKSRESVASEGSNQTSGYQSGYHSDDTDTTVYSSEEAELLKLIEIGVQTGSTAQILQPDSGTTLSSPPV
Text: as §1, §2, §3, §4, §5

CDK2/CycA = target: T3, CDK2/CycA (Homo sapiens, UniProt P24941); assay: as above; format: biochemical
T3 construct: made in house; host or cells: Sf9 insect cells, baculovirus
Text: as §1, §2, §3, §4, §5

Aurora-B = target: T4, Aurora-B (Homo sapiens, UniProt Q96GD4); assay: as above; format: biochemical
T4 construct: made in house; host or cells: Sf9 insect cells, baculovirus
Text: as §1, §2, §3, §4, §5

AKT1 = target: T5, AKT1 (Homo sapiens, UniProt P31749); assay: as above; format: biochemical
T5 construct: made in house; host or cells: Sf9 insect cells, baculovirus
T5 sequence (P31749 whole entry): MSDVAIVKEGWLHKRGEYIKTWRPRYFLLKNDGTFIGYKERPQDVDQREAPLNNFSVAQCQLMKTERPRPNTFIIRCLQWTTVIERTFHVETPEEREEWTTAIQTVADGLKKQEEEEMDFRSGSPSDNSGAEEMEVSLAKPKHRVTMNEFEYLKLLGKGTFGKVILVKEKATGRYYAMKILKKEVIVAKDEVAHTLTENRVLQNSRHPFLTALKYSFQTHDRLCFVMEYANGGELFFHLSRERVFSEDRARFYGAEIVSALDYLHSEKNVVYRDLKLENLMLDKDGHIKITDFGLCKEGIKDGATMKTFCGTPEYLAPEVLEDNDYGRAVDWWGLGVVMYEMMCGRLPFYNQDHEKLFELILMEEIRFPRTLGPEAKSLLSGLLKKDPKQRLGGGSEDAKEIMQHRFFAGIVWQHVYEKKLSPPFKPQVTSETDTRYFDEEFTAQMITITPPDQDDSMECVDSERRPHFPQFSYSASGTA
Text: as §1, §2, §3, §4, §5

PLK1 = target: T6, PLK1 (Homo sapiens, UniProt P53350); assay: as above; format: biochemical
T6 construct: made in house; host or cells: Sf9 insect cells, baculovirus
T6 sequence (P53350 whole entry): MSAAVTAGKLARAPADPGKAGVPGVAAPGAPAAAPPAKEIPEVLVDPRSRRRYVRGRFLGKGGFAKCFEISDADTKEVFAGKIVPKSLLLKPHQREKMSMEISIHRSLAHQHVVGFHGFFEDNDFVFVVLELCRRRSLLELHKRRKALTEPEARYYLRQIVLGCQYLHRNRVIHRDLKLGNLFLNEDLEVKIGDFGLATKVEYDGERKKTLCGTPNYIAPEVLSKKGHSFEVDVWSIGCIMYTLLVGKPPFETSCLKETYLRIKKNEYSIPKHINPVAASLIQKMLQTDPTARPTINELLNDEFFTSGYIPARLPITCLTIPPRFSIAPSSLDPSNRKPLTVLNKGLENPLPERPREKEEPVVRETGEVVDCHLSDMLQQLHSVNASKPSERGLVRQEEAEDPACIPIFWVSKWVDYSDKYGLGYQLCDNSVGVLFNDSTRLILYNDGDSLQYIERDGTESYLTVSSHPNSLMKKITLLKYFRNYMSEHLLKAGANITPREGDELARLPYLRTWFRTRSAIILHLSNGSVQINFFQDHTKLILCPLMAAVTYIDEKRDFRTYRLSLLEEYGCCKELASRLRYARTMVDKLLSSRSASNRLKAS
Text: as §1, §2, §3, §4, §5

MET = target: T7, MET (Homo sapiens, UniProt P08581); assay: as above; format: biochemical
T7 construct: made in house; host or cells: Sf9 insect cells, baculovirus
Text: as §1, §2, §3, §4, §5

SRC = target: T8, SRC (Homo sapiens, UniProt P12931); assay: as above; format: biochemical
T8 construct: made in house; host or cells: Sf9 insect cells, baculovirus
T8 sequence (P12931 whole entry): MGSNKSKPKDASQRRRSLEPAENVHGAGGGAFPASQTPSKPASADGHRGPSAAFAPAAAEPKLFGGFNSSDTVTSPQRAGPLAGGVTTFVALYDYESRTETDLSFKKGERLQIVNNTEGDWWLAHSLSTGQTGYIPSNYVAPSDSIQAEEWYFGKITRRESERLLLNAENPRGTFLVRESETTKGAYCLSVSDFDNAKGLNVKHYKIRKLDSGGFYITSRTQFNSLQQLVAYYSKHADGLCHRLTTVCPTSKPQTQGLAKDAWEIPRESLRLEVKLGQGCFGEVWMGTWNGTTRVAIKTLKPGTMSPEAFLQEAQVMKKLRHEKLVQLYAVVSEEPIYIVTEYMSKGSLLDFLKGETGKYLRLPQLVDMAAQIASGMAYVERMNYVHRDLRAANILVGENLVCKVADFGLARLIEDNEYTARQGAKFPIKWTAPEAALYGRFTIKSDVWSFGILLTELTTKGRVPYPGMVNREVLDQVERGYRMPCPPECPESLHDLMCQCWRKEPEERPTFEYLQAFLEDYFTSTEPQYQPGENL
Text: as §1, §2, §3, §4, §5

CDK4/CycD1 = target: T9, CDK4/CycD1 (Homo sapiens, UniProt P11802); assay: as above; format: biochemical
T9 construct: made in house; host or cells: Sf9 insect cells, baculovirus
T9 sequence (P11802 whole entry): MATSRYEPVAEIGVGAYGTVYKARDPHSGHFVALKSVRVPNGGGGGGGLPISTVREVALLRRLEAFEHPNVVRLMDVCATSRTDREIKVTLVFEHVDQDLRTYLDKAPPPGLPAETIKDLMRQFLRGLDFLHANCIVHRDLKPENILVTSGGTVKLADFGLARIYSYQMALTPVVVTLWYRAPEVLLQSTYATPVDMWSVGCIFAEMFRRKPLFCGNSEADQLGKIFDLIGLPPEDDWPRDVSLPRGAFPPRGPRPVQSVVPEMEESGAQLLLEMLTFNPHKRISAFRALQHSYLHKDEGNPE
T9 sequence (P24385 whole entry partner): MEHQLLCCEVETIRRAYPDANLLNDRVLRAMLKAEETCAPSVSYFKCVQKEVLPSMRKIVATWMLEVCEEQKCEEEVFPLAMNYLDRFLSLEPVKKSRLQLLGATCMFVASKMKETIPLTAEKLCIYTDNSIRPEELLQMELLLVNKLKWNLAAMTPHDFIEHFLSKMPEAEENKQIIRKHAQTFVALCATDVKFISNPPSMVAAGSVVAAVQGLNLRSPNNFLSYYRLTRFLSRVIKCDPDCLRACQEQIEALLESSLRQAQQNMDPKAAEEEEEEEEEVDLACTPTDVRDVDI
Text: as §1, §2, §3, §4, §5

FLT3 = target: T10, FLT3 (Homo sapiens, UniProt P36888); assay: as above; format: biochemical
T10 construct: made in house; host or cells: Sf9 insect cells, baculovirus
T10 sequence (P36888 27-993): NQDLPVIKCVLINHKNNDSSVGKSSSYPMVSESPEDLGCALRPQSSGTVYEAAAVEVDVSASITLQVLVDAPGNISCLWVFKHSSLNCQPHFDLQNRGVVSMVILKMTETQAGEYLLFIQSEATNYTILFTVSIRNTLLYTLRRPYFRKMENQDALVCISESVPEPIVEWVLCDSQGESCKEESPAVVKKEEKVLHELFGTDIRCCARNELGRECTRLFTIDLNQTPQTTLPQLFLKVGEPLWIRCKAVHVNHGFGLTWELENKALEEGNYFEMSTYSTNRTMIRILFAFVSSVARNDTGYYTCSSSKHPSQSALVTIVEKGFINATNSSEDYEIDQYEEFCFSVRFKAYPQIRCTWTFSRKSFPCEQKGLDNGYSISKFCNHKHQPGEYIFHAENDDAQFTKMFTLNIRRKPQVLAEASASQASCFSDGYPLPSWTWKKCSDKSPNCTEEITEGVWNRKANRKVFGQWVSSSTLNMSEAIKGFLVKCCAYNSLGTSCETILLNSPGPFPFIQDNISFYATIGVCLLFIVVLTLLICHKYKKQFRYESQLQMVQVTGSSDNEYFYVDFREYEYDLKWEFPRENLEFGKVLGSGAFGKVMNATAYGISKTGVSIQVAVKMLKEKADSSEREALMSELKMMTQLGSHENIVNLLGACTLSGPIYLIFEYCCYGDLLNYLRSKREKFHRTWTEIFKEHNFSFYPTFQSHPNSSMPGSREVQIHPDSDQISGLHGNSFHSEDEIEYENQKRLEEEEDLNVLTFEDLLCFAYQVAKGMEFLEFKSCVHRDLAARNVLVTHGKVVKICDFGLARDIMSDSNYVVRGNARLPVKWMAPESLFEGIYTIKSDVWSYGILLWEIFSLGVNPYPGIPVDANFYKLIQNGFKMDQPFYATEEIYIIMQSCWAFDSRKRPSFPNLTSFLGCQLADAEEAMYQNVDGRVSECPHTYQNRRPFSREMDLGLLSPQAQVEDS
Text: as §1, §2, §3, §4, §5

KYSE-70 = assay: Proliferation of tumor cell lines (Bracht et al.); format: cell-based; conditions: Homo sapiens; for activity at 20 µM: KYSE-70, tested at 20 μM, read-out: T/C (%) Mean
SISO = assay: Proliferation of tumor cell lines (Bracht et al.); format: cell-based; conditions: for activity at 20 µM: tested at 20 μM, read-out: T/C (%) Mean
[1] = 1 μM ATP, read-out: IC50 values [μM] ERBB2
[2] = 1 μM ATP, read-out: IC50 values [μM] VEGF-R2
[3] = 1 μM ATP, read-out: IC50 values [μM] CDK2/CycA
[4] = 1 μM ATP, read-out: IC50 values [μM] Aurora-B
[5] = 1 μM ATP, read-out: IC50 values [μM] AKT1
[6] = 1 μM ATP, read-out: IC50 values [μM] PLK1
[7] = 1 μM ATP, read-out: IC50 values [μM] MET
[8] = 1 μM ATP, read-out: IC50 values [μM] SRC
[9] = 1 μM ATP, read-out: IC50 values [μM] CDK4/CycD1
[10] = 1 μM ATP, read-out: IC50 values [μM] FLT3

T1 sequence (P04626 23-1255): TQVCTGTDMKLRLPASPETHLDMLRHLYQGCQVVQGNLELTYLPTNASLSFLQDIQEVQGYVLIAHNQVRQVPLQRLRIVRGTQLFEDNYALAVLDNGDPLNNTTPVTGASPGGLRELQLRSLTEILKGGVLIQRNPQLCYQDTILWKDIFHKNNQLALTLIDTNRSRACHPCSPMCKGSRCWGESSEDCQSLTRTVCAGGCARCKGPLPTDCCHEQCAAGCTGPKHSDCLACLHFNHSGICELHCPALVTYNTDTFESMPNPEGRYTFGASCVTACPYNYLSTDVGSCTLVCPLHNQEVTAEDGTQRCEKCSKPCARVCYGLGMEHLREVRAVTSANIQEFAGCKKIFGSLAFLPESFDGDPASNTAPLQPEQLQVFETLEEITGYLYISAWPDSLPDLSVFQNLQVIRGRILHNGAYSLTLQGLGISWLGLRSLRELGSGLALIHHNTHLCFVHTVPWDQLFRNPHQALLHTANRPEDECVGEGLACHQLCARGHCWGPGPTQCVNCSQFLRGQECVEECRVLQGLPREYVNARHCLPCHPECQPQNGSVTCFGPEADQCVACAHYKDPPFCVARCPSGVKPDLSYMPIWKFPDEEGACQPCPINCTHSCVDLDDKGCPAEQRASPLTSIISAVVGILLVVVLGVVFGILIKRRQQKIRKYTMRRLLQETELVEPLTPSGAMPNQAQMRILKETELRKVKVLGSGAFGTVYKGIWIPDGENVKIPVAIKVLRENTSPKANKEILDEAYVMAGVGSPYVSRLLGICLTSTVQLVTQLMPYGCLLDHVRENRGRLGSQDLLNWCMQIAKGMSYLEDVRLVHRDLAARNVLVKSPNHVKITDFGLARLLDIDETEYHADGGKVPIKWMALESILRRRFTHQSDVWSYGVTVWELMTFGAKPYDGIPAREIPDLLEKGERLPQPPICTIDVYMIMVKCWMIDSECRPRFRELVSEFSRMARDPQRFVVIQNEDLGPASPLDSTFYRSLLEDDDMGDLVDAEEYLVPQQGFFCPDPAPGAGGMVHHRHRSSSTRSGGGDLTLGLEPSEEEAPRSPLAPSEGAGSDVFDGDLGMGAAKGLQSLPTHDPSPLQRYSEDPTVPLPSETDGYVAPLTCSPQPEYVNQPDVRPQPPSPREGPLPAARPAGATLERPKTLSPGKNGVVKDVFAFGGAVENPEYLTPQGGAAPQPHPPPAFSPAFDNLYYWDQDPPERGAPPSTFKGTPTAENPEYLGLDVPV

CC(C)n1c2c(c3c1-c1ccccc1C3=O)C(=O)CCC2 [Compound 4b, 5-Isopropyl-5,6,7,8-tetrahydroindeno[1,2-b]indole-9,10-dione]
activity at 20 µM 5637: 99%
IC50 (ERBB2): > 10 µM
IC50 (VEGF-R2): > 10 µM
IC50 (CDK2/CycA): > 10 µM
IC50 (Aurora-B): > 10 µM
IC50 (AKT1): > 10 µM
IC50 (PLK1): > 10 µM
IC50 (MET): > 10 µM
IC50 (SRC): > 10 µM
IC50 (CDK4/CycD1): > 10 µM
IC50 (FLT3): > 10 µM
activity at 20 µM (KYSE-70): 74.9%
activity at 20 µM (SISO): 100%

CC(C)n1c2c(=O)ccc(=O)c2c2c(=O)c3ccccc3c21 [Compound 6b, 5-Isopropyl-5H-indeno[1,2-b]indole-6,9,10-trione]
activity at 20 µM 5637: -1.73%
IC50 (ERBB2; [1]): > 10 µM
IC50 (VEGF-R2; [2]): 1.9 µM
IC50 (CDK2/CycA; [3]): > 10 µM
IC50 (Aurora-B; [4]): 5.4 µM
IC50 (AKT1; [5]): 9.3 µM
IC50 (PLK1; [6]): > 10 µM
IC50 (MET; [7]): > 10 µM
IC50 (SRC; [8]): 1.6 µM
IC50 (CDK4/CycD1; [9]): > 10 µM
IC50 (FLT3; [10]): 0.051 µM
activity at 20 µM (KYSE-70): 1.26%
activity at 20 µM (SISO): 0.28%

O=c1ccc(=O)c2c1c1c(=O)c3ccccc3c1n2Cc1ccccc1 [Compound 6c, 5-Benzyl 5,6,9,10-tetrahydroindeno[1,2-b]indole-6,9,10-trione]
activity at 20 µM 5637: 0.44%
IC50 (5637; 5637, read-out: IC50 (μM) Mean, inhibition of cell proliferation): 2.75 µM
IC50 (ERBB2; [1]): 7.6 µM
IC50 (VEGF-R2; [2]): 3.3 µM
IC50 (CDK2/CycA; [3]): > 10 µM
IC50 (Aurora-B; [4]): > 10 µM
IC50 (AKT1; [5]): > 10 µM
IC50 (PLK1; [6]): > 10 µM
IC50 (MET; [7]): > 10 µM
IC50 (SRC; [8]): 0.8 µM
IC50 (CDK4/CycD1; [9]): 7.6 µM
IC50 (FLT3; [10]): 9.2 µM
IC50 (KYSE-70; KYSE-70, read-out: IC50 (μM) Mean, inhibition of cell proliferation): 2.83 µM
activity at 20 µM (KYSE-70): 12.1%
IC50 (SISO; read-out: IC50 (μM) Mean, inhibition of cell proliferation): 2.82 µM
activity at 20 µM (SISO): 5.3%
